How the values were obtained:
[1] = target: T1, GST-tagged KRAS-G12D (2-169) (Homo sapiens, UniProt P01116, G12D); test: Nucleotide exchange assay (NEA), SOS-mediated, HTRF, KRAS G12D; type: biochemical; details: Table 4; IC50 extracted at 30 min
T1 construct: GST-tagged KRAS-G12D (2-169, Reaction Biology, MSC-11-539); purchased Reaction Biology MSC-11-539 (KRAS G12D); MSC-11-502 (SOS1cat)
In short: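 GST-KRAS-G12D (2-169, 5 nM final) with Tb-anti-GST donor was preincubated with compound 1 h at RT (pH 7.3 HEPES buffer, MgCl2, DTT), then SOScat (564-1049, 20 nM) and GTP-DY-647P1 (150 nM) were added. HTRF was read at RT; % inhibition vs DMSO/no-SOS blank, 4-parameter IC50 taken at 30 min.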

[2] = test system: AGS cells (KRAS G12D), phospho-ERK; test: pERK In Cell Western (ICW) assay (Method B), AGS cells; type: cell-based; details: Homo sapiens, Table 4, pERK, 3 hours, read-out: ICW-AGS
In short: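 GP2D (10,000 cells/well) and AGS (5,000 cells/well) cells were treated for 3 h at 37 °C with a 10-point, ½-log dilution series (top […]). They were then fixed and immunostained for phospho-ERK. pERK signal was normalised to DRAQ5 and expressed as % of DMSO, with IC50 from a 4-parameter fit.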

T1 sequence (P01116 2-169 isoform P01116-2 G12D): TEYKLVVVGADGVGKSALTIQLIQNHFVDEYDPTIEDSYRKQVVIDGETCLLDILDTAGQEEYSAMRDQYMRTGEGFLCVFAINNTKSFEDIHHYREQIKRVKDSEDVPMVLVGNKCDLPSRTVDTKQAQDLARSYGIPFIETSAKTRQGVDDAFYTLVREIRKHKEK

Molecule N#Cc1c(N2C[C@H]3CC[C@@H](C2)N3)nc(OCC2(CN3CCOCC3)CC2)nc1N1CC2(C=CCc3sc(N)c(C#N)c32)C1 [Compound 86, 2-amino-1′-[5-cyano-2-[[1-(morpholinomethyl)cyclopropyl]methoxy]-6-[(1R,5S)-3,8-diazabicyclo[3.2.1]octan-3-yl]pyrimidin-4-yl]spiro[7H-benzothiophene-4,3′-azetidine]-3-carbonitrile] has an IC50 [1] of less than 10 nM and an IC50 [2] of 10 to 100 nM.

CN(C)CC1(COc2nc(N3CCCn4nc(C(=O)N(C)C)c(Cl)c4C3)c(C#N)c(N3CC4(CCc5sc(N)c(C#N)c54)C3)n2)CC1(F)F (stereo not shown) [Compound 87, 5-[6-(2-amino-3-cyano-spiro[5,6-dihydrocyclopenta[b]thiophene-4,3′-azetidine]-1′-yl)-5-cyano-2-[[1-[(dimethylamino)methyl]-2,2-difluoro-cyclopropyl]methoxy]pyrimidin-4-yl]-3-chloro-N,N-dimethyl-4,6,7,8-tetrahydropyrazolo[1,5-a][1,4]diazepine-2-carboxamide] was tested, and the IC50 [1] was less than 10 nM and the IC50 [2] was 10 to 100 nM.

Work on C[C@H](Oc1nc(N2C[C@H]3CC[C@@H](C2)N3)c(C#N)c(N2CC3(CCc4sc(N)c(C#N)c43)C2)n1)[C@@H]1CCCN1C [Compound 88, 2-amino-1′-[5-cyano-6-[(1R,5S)-3,8-diazabicyclo[3.2.1]octan-3-yl]-2-[(1S)-1-[(2S)-1-methylpyrrolidin-2-yl]ethoxy]pyrimidin-4-yl]spiro[5,6-dihydrocyclopenta[b]thiophene-4,3′-azetidine]-3-carbonitrile] yielded an IC50 [1] of 10 to 100 nM and an IC50 [2] of 1000 to 10000 nM.

In the case of N#Cc1c(N2C[C@H]3CC[C@@H](C2)N3)nc(OCC2(CN3C[C@@H]4C[C@H]3CO4)CC2)nc1N1CC2(CCc3sc(N)c(C#N)c32)C1 [Compound 89, 2-amino-1′-[5-cyano-6-[(1R,5S)-3,8-diazabicyclo[3.2.1]octan-3-yl]-2-[[1-[[(1S,4S)-2-oxa-5-azabicyclo[2.2.1]heptan-5-yl]methyl]cyclopropyl]methoxy]pyrimidin-4-yl]spiro[5,6-dihydrocyclopenta[b]thiophene-4,3′-azetidine]-3-carbonitrile], the IC50 [1] is reported as less than 10 nM and the IC50 [2] is reported as 10 to 100 nM.

For CN(C)C(=O)c1nn2c(c1Cl)CN(c1nc(OC[C@@]34CCCN3C[C@H](F)C4)nc(N3CC4(CCc5sc(N)c(C#N)c54)C3)c1C#N)CC(F)(F)C2 [Compound 91, 5-[6-(2-amino-3-cyano-spiro[5,6-dihydrocyclopenta[b]thiophene-4,3′-azetidine]-1′-yl)-5-cyano-2-[[(2R,8S)-2-fluoro-1,2,3,5,6,7-hexahydropyrrolizin-8-yl]methoxy]pyrimidin-4-yl]-3-chloro-7,7-difluoro-N,N-dimethyl-6,8-dihydro-4H-pyrazolo[1,5-a][1,4]diazepine-2-carboxamide], the IC50 [1] was less than 10 nM and the IC50 [2] was 10 to 100 nM.

From patent publication US12145947B2, “Pyrimidine based modulators and uses thereof” (Quanta Therapeutics, Inc., priority 2022, dated 2024)
